The target of the assay is T1, human ERα (Homo sapiens, UniProt P03372).
T1 sequence (P03372 1-595): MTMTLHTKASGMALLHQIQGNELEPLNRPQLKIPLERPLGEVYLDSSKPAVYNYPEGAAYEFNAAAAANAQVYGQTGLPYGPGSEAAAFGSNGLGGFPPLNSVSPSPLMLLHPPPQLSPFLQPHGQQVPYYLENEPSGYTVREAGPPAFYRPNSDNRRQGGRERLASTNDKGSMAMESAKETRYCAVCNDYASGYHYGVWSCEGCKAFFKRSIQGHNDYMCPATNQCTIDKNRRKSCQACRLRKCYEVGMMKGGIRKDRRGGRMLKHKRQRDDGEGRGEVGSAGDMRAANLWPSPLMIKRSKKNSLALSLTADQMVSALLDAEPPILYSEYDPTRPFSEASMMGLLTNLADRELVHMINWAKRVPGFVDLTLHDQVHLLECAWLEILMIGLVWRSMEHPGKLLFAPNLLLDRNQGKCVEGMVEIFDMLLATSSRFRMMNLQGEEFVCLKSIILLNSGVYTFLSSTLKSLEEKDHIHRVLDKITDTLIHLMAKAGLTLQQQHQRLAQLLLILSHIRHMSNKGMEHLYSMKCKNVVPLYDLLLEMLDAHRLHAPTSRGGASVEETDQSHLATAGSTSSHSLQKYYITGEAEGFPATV
In words: NF-κB luciferase reporter (ER/NF-KB-luc) in Ad5-wt-hERα infected HAECT-1 cells. The conditions noted are these: for IC50: ER/NF-KB-luc IC50, Ad5-wt-ER infected HAECT-1 cells, IL-1β; for Emax: HAECT1, read-out: ER/NF-KB-luc % E2, efficacy relative to the maximal inhibition observed with E2.

The IC50 is the concentration that inhibits the measured activity by half. Low values mean higher potency, high ones lower potency. For the compound `CCc1ccc(-c2cccc3c(-c4ccc(O)cc4)nn(C(C)C)c23)cc1` [Example 232, 4-[7-(4-ethylphenyl)-1-isopropyl-1H-indazol-3-yl]phenol], the IC50 was determined as 143 nM and the Emax came to 75%.

With `Oc1ccc(-c2nn(C3CCCC3)c3c(F)cccc23)c(O)c1` [Example 88, 4-(1-cyclopentyl-7-fluoro-1H-indazole-3-yl)benzene-1,3-diol], the half-maximal inhibitory concentration (IC50) turned out to be 419 nM and the Emax stood at 74%.

Turning to `Cc1cc(O)ccc1-c1nn(C(C)C)c2c(-c3ccccc3Cl)cccc12` [Example 253, 4-[7-(2-chlorophenyl)-1-isopropyl-1H-indazol-3-yl]-3-methyl-phenol], the IC50 stood at 21 nM and the Emax was determined as 62%.

For `Oc1ccc(-c2nn(Cc3ccccc3)c3c(C(F)(F)F)cccc23)cc1` [Example 147, 4-[1-benzyl-7-(trifluoromethyl)-1H-indazol-3-yl]phenol], the Emax was 65%.

`CC(C)n1nc(-c2ccc(O)cc2)c2cccc(-c3ccc(CO)cc3)c21` [Example 230, 4-{7-[4-(hydroxymethyl)phenyl]-1-isopropyl-1H-indazol-3-yl}-phenol]: the half-maximal inhibitory concentration (IC50) was 367 nM and the Emax amounted to 82%.

Consider `Oc1ccc(-c2nn(-c3cccc(C(F)(F)F)c3)c3cc(O)ccc23)c(O)c1` [Example 26, 4-{6-hydroxy-1-[3-(trifluoromethyl)phenyl]-1H-indazol-3-yl}benzene-1,3-diol], for which the IC50 came out at 356 nM and the Emax amounted to 101%.

Turning to `CCCCn1nc(-c2ccc(O)cc2)c2cccc(C(F)(F)F)c21` [Example 219, 4-[1-butyl-7-(trifluoromethyl)-1H-indazol-3-yl]phenol], the 50% inhibitory concentration (IC50) is 369 nM and the Emax came to 104%.

`Oc1ccc(-c2nn(-c3ccsc3)c3c(Cl)cccc23)cc1` [Example 101, 4-(7-chloro-1-thien-3-yl-1H-indazole-3-yl)phenol]: the midpoint of inhibition, the IC50, lay at 505 nM and the Emax came out at 61%.

As to `CC(C)Cn1nc(-c2ccc(O)cc2O)c2cccc(C(F)(F)F)c21` [Example 68, 4-[1-isobutyl-7-(trifluoromethyl)-1H-indazol-3-yl]benzene-1,3-diol], the IC50 stood at 56 nM and the Emax was found to be 74%.

`CC(C)n1nc(-c2ccc(O)cc2O)c2cccc(Cl)c21` [Example 80, 4-(7-chloro-1-isopropyl-1H-indazol-3-yl)benzene-1,3-diol]: the 50% inhibitory concentration (IC50) was 18 nM and the Emax is 48%.

As for `Cc1cc(O)ccc1-c1nn(CC(C)C)c2c(F)cccc12` [Example 96, 4-(7-fluoro-1-isobutyl-1H-indazole-3-yl)-3-methylphenol], half-maximal inhibition (IC50) required 88 nM and the Emax worked out at 78%.

With `OCCn1nc(-c2ccc(O)cc2)c2cccc(C(F)(F)F)c21` [Example 162, 4-[1-(2-hydroxyethyl)-7-(trifluoromethyl)-1H-indazol-3-yl]phenol], the Emax is 84%.

As to `CCCn1nc2c(F)cccc2c1-c1ccc(O)cc1C` [Example 92, 4-(7-fluoro-2-propyl-2H-indazole-3-yl)-3-methylphenol], 228 nM corresponded to half-maximal inhibition (IC50) and the Emax is 87%.

`Cc1cc(O)ccc1-c1nn(C(C)C)c2c(-c3ccc(O)c(O)c3)cccc12` [Example 250, 4-[3-(4-hydroxy-2-methylphenyl)-1-isopropyl-1H-indazol-7-yl]-benzene-1,2-diol]: the Emax worked out at 80%.

Consider `Cc1cc(-c2nn(C3CCCC3)c3c(F)cccc23)ccc1O` [Example 63, 4-(1-cyclopentyl-7-fluoro-1H-indazol-3-yl)-2-methylphenol], for which the IC50 worked out at 1880 nM and the Emax amounted to 158%.

For `CC(C)n1nc(-c2ccc(O)cc2)c2cccc(-c3ccccc3Cl)c21` [Example 234, 4-[7-(2-chlorophenyl)-1-isopropyl-1H-indazol-3-yl]phenol], half-maximal inhibition (IC50) required 34 nM and the Emax was 72%.

For the compound `CC(C)Cn1nc(-c2ccc(O)cc2O)c2cccc(F)c21` [Example 94, 4-(7-fluoro-1-isobutyl-1H-indazole-3-yl)benzene-1,3-diol], the half-maximal inhibitory concentration (IC50) came to 332 nM and the Emax turned out to be 86%.

On to `C=CCn1nc(-c2ccc(O)cc2C)c2cccc(Cl)c21` [Example 82, 4-(1-allyl-7-chloro-1H-indazol-3-yl)-3-methylphenol], for which inhibition was half-maximal at 191 nM (IC50) and the Emax was determined as 68%.

With `CC(C)n1nc2c(F)cccc2c1-c1ccc(O)cc1O` [Example 89, 4-(7-fluoro-2-isopropyl-2H-indazole-3-yl)benzene-1,3-diol], the IC50 was 435 nM and the Emax turned out to be 97%.

Consider `CC(C)c1ccc(-n2nc(-c3ccc(O)cc3O)c3ccc(O)cc32)cc1` [Example 27, 4-[6-hydroxy-1-(4-isopropylphenyl)-1H-indazol-3-yl]benzene-1,3-diol], for which inhibition was half-maximal at 1030 nM (IC50) and the Emax was 96%.

Take `Cc1cc(O)ccc1-c1nn(C(C)C)c2c(-c3ccccc3C)cccc12` [Example 255, 4-[1-isopropyl-7-(2-methylphenyl)-1H-indazol-3-yl]-3-methyl-phenol]: it took 4 nM to reach half-maximal inhibition (IC50) and the Emax was found to be 89%.

Turning to `Cc1cc(O)ccc1-c1nn(C(C)C)c2c(-c3ccc(-c4ccccc4)cc3)cccc12` [Example 252, 4-[7-(1,1′-biphenyl-4-yl)-1-isopropyl-1H-indazol-3-yl]-3-methyl-phenol], the IC50 worked out at 56 nM and the Emax turned out to be 59%.

Regarding `Oc1ccc(-c2nn(-c3cccc(Cl)c3)c3cc(O)ccc23)c(O)c1` [Example 6, 4-[1-(3-chlorophenyl)-6-hydroxy-1H-indazol-3-yl]benzene-1,3-diol], the Emax was 85%.

In the case of `Cc1cc(O)ccc1-c1nn(C(C)C)c2c(C(F)(F)F)cccc12` [Example 83, 4-[1-isopropyl-7-(trifluoromethyl)-1H-indazole-3-yl]-3-methylphenol], the Emax amounted to 82%.

With `CCc1ccc(-c2cccc3c(-c4ccc(O)cc4C)nn(C4CCCC4)c23)cc1` [Example 260, 4-[1-cyclopentyl-7-(4-ethylphenyl)-1H-indazol-3-yl]-3-methyl-phenol], the IC50 was 28 nM and the Emax was determined as 53%.

In the case of `Cc1ccccc1-c1cccc2c(-c3ccc(O)cc3)nn(C3CCCC3)c12` [Example 245, 4-[1-cyclopentyl-7-(2-methylphenyl)-1H-indazol-3-yl]phenol], the half-maximal inhibitory concentration (IC50) was 16 nM and the Emax worked out at 70%.

Regarding `CC(=O)Oc1ccc(-c2nn(C3CCCC3)c3c(F)cccc23)cc1` [Example 114, 4-(1-cyclopentyl-7-fluoro-1H-indazol-3-yl)phenyl acetate], the IC50 came to 268 nM and the Emax was 67%.

As to `C=CCn1nc(-c2ccc(O)cc2O)c2cccc(Cl)c21` [Example 85, 4-(1-allyl-7-chloro-1H-indazole-3-yl)benzene-1,3-diol], 235 nM corresponded to half-maximal inhibition (IC50) and the Emax was 46%.

On to `Cc1cc(O)ccc1-c1nn(C2CCCC2)c2c(Cl)cccc12` [Example 84, 4-(7-chloro-1-cyclopentyl-1H-indazole-3-yl)-3-methylphenol], for which 36 nM corresponded to half-maximal inhibition (IC50) and the Emax turned out to be 75%.

For `Oc1ccc(-c2nn(-c3ccccc3F)c3cc(O)ccc23)c(O)c1` [Example 22, 4-[1-(2-fluorophenyl)-6-hydroxy-1H-indazol-3-yl]benzene-1,3-diol], the IC50 turned out to be 50 nM and the Emax was 73%.

`CCCn1nc(-c2ccc(O)cc2O)c2ccc(O)cc21` [Example 1, 4-(6-hydroxy-1-propyl-1H-indazol-3-yl)benzene-1,3-diol]: the Emax is 74%.

In the case of `O=[N+]([O-])c1cccc(-n2nc(-c3ccc(O)cc3O)c3ccc(O)cc32)c1` [Example 25, 4-[6-hydroxy-1-(3-nitrophenyl)-1H-indazol-3-yl]benzene-1,3-diol], the half-inhibitory concentration (IC50) stood at 274 nM and the Emax was determined as 112%.

Consider `CC(C)(C)C(=O)Oc1ccc(-c2nn(C3CCCC3)c3c(F)cccc23)cc1` [Example 112, 4-(1-cyclopentyl-7-fluoro-1H-indazol-3-yl)phenyl pivalate], for which the IC50 turned out to be 667 nM and the Emax was 48%.

For the compound `Oc1ccc(-c2nn(CC3CCCCC3)c3c(C(F)(F)F)cccc23)c(O)c1` [Example 67, 4-[1-(cyclohexylmethyl)-7-(trifluoromethyl)-1H-indazol-3-yl]benzene-1,3-diol], the half-inhibitory concentration (IC50) is 48 nM and the Emax was found to be 65%.

With `Oc1ccc(-c2nn(C3CCC3)c3c(C(F)(F)F)cccc23)c(O)c1` [Example 70, 4-[1-cyclobutyl-7-(trifluoromethyl)-1H-indazol-3-yl]benzene-1,3-diol], half-maximal inhibition (IC50) was put at 14 nM and the Emax was determined as 76%.

Turning to `CCCn1nc(-c2ccc(O)cc2C)c2cccc(F)c21` [Example 93, 4-(7-fluoro-1-propyl-1H-indazole-3-yl)-3-methylphenol], the IC50 turned out to be 128 nM and the Emax was 60%.

For `Oc1ccc(-c2nn(Cc3ccccc3)c3c(F)cccc23)c(O)c1` [Example 151, 4-(1-benzyl-7-fluoro-1H-indazol-3-yl)benzene-1,3-diol], the concentration for half-maximal inhibition (IC50) is 1060 nM and the Emax worked out at 81%.
